The source of these data is US6335436B1, “Oligonucleotides active against drug-resistant bacteria” (priority 1995, dated 2002).

What all share (type): cell-based, Mycobacterium smegmatis
Test [1] concerns M. smegmatis ATCC 607. Kind of test: Inhibition of M. smegmatis growth in broth cultures (cell counts). Conditions: for Cell Numbers per ml × 10^6: no ODS.
For test [2], the system named is M. smegmatis mc^2155. Briefly: MIC of ethambutol in the presence of oligodeoxynucleotide phosphorothioates in broth cultures. Conditions: Mycolicibacterium smegmatis, 336 h, no ODS, at least 99% inhibition of cell growth during two weeks.
In test [3] the test system is M. smegmatis ATCC 607. Described as above. Conditions: Mycolicibacterium smegmatis, ATCC607, 336 h, read-out: MIC of ethambutol.

One may read the MIC as the smallest concentration in the dilution series that meets the test's criterion for growth inhibition.

Consider `N[C@@H]1CONC1=O` [D-cycloserine], for which the “Cell Numbers per ml × 10^6” value in test [1] (Table IV, free D-cycloserine 1 μg/ml alone, 24 hrs) is reported as 617 × 10^6 cells per ml; in test [1] (Table IV, free D-cycloserine 1 μg/ml alone, 48 hrs), 549 × 10^6 cells per ml; in test [1] (Table IV, free D-cycloserine 1 μg/ml alone, 72 hrs), 504 × 10^6 cells per ml; in test [1] (Table IV, free D-cycloserine 5 μg/ml alone, 24 hrs), 551 × 10^6 cells per ml; in test [1] (Table IV, free D-cycloserine 5 μg/ml alone, 48 hrs), 482 × 10^6 cells per ml; in test [1] (Table IV, free D-cycloserine 5 μg/ml alone, 72 hrs) it was 420 × 10^6 cells per ml. Further, the “Cell Numbers per ml × 10^6” value is on record as 363 × 10^6 cells per ml in test [1] (Table IV, free D-cycloserine 30 μg/ml alone, 24 hrs); 291 × 10^6 cells per ml in test [1] (Table IV, free D-cycloserine 30 μg/ml alone, 48 hrs); 236 × 10^6 cells per ml in test [1] (Table IV, free D-cycloserine 30 μg/ml alone, 72 hrs). Moreover, in test [1] (free D-cycloserine in liquid medium, 1.0 μg/ml), the inhibition of growth entry was “minimal inhibition of growth”. In addition, the “inhibition of M. smegmatis growth” value in test [1] (free D-cycloserine in liquid medium, 10-30 μg/ml) is “significant inhibition”.

Regarding `CC[C@@H](CO)NCCN[C@@H](CC)CO` [Ethambutol, ethambutol], the MIC came out at 30 µg/mL in test [2] and 25 µg/mL in test [3]. For the same compound, the “Cell Numbers per ml × 10^6” value in test [1] (Table I, ethambutol 0.5 ug/ml alone, 24 hrs) was 71 × 10^6 cells per ml; in test [1] (Table I, ethambutol 0.5 ug/ml alone, 48 hrs) it was 240 × 10^6 cells per ml; in test [1] (Table I, ethambutol 0.5 ug/ml alone, 72 hrs) it was 411 × 10^6 cells per ml; in test [1] (Table I, ethambutol 1 ug/ml alone, 24 hrs), 39 × 10^6 cells per ml; in test [1] (Table I, ethambutol 1 ug/ml alone, 48 hrs), 109 × 10^6 cells per ml; in test [1] (Table I, ethambutol 1 ug/ml alone, 72 hrs) it was 172 × 10^6 cells per ml. The “Cell Numbers per ml × 10^6” value in test [1] (Table I, ethambutol 5 ug/ml alone, 24 hrs) is on record as 25 × 10^6 cells per ml; in test [1] (Table I, ethambutol 5 ug/ml alone, 48 hrs), 68 × 10^6 cells per ml; in test [1] (Table I, ethambutol 5 ug/ml alone, 72 hrs) it was 111 × 10^6 cells per ml; in test [1] (Table III, ethambutol 0.5 μg/ml alone, 24 hrs), 77 × 10^6 cells per ml; in test [1] (Table III, ethambutol 0.5 μg/ml alone, 48 hrs), 189 × 10^6 cells per ml; in test [1] (Table III, ethambutol 0.5 μg/ml alone, 72 hrs) it was 388 × 10^6 cells per ml.
